Measured values taken from patent US20260158157A1, “COMBINATION OF ANTI-HER3 ANTIBODY-DRUG CONJUGATE AND RASG12C INHIBITOR” (DAIICHI SANKYO COMPANY, LIMITED, priority 2023, published 2026).

Legend:
topoisomerase I = target: T1, topoisomerase I (Homo sapiens, UniProt P11387); conditions: reference: Ogitani Y. et al., Clinical Cancer Research 2016; cited from earlier work
T1 sequence (P11387 1-765): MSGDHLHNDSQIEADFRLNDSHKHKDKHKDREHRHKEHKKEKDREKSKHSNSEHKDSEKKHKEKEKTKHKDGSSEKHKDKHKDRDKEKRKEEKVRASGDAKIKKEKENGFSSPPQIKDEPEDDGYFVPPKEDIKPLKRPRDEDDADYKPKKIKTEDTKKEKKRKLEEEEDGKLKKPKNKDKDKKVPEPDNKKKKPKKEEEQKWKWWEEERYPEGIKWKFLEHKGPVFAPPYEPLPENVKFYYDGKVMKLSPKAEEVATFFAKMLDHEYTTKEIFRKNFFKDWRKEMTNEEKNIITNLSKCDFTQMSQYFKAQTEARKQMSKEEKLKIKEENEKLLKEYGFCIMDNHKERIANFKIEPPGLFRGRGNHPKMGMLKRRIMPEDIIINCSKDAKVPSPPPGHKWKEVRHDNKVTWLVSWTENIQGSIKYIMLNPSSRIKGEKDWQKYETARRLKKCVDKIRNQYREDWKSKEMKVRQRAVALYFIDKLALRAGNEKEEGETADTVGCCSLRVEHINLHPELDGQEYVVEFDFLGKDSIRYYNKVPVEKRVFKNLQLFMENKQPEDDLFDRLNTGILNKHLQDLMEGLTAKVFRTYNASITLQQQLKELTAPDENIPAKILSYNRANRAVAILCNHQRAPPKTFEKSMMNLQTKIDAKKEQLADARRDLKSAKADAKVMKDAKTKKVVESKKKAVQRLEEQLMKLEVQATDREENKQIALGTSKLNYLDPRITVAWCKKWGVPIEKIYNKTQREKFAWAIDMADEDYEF

NCI-H358 cells = test: Antitumor test (1): NCI-H358 cells subcutaneously transplanted into nude mice; conditions: for notable findings such as weight reduction: NCI-H358 xenograft nude mice, HER3-ADC (1) 3 mg/kg iv and/or RASG12C inhibitor 10 mg/kg orally, 3 weeks
Description: Mouse: Female BALB/c nude mice of 5 to 6 week-old (Charles River Laboratories Japan, Inc.) were used in an experiment.
Measurement and calculation formula: In all studies, the long diameter and the short diameter of a tumor were measured with an electronic digital caliper (CD-15CX, Mitutoyo Corporation) twice a week to calculate the tumor volume (mm^3). The calculation formula was as follows: […]
HER3-ADC (1) was diluted with ABS buffer (10 mM acetate buffer (pH 5.5), 5% sorbitol), and the resultant liquid was administered in an amount of 10 mL/kg to the tail vein.
Sotorasib was dissolved in 2% hydroxypropyl methylcellulose and 1% Tween 80, and the resultant liquid was orally administered in an amount of 10 mL/kg. […] NCI-H358 cells, that is, human lung cancer line purchased from ATCC (American Type Culture Collection) were suspended in 50% Matrigel matrix (Invitrogen), and 3×10^6 cells thus obtained were subcutaneously transplanted into a right side portion of the body of each of the female nude mice, and the resultant mice were randomly grouped 13 days after the transplantation (Day 0). HER3-ADC (1) was administered to the tail vein at a dose of 3 mg/kg on Day 0, Day 7, and Day 14. The RASG12C inhibitors were administered at a dose of 10 mg/kg for 3 weeks once a day and five times a week. Groups each given one of these agents, a group given both, and a solvent administration group as a control group were established.

| Compound | topoisomerase I inhibitory effect (topoisomerase I) | notable findings such as weight reduction (NCI-H358 cells) | tumor growth inhibition (TGI), single administration of RASG12C inhibitor (NCI-H358 cells; NCI-H358 xenograft, female nude mice, 10 mg/kg orally once a day, five times a week for 3 weeks, final day of the test) | tumor growth inhibition (TGI), single administration of HER3-ADC (1) (NCI-H358 cells; NCI-H358 xenograft, female nude mice, 3 mg/kg tail vein on Day 0, Day 7 and Day 14, final day of the test) |
| --- | --- | --- | --- | --- |
| CC[C@@]1(O)C(=O)OCc2c1cc1n(c2=O)Cc2c-1nc1cc(F)c(C)c3c1c2[C@@H](NC(=O)CO)CC3 | confirmed to have topoisomerase I inhibitory effect |  |  |  |
| C=CC(=O)N1CCN(c2nc(=O)n(-c3c(C)ccnc3C(C)C)c3nc(-c4c(O)cccc4F)c(F)cc23)[C@@H](C)C1 [sotorasib] |  | anal prolapse | 39% |  |
| HER3-ADC (1): anti-HER3 antibody (heavy chain SEQ ID NO: 1, light chain SEQ ID NO: 2) conjugated to exatecan-derivative drug-linker via thioether bond; average drug-to-antibody ratio 7.6 |  | No notable findings such as weight reduction |  | 68% |
